As usually defined, the viability is the share of living cells, or the viability signal relative to a control.

Common to all, as to format: cell-based
The subject of assay [1] is SH-SY5Y cells. In words: Cell viability (MTS reduction) in 4-Br-A23187-treated SH-SY5Y cells. As to conditions: MTS reduction capacity; 4-Br-A23187 2 μM, 24 h; compounds at 10 nM. Here is the method: (§1) After 24 h, cells were depleted from FBS and kept in culture for 24 h before the experiment. Cells were then treated with 4-Br-A23187 (2 μM), hydrogen peroxide (300 μM) or the mitochondrial toxin rotenone (25 μM) in the presence of vehicle or Compound of the Invention for 24 h. Cell death was determined by measurements of LDH release according to the Cytotoxicity Detection KitPlus (Roche, Mannheim, Germany). Cell viability was determined by measuring the capacity of cells to metabolize MTS tetrazolium (MTS) according to the Cytotoxicity Detection KitPlus (Roche, Mannheim, Germany) and MTS reduction is assessed by the CellTiter 96® AQueous One Solution Cell Proliferation assay (Promega Corporation, Madison, Wis., USA). Compounds were screened at 10 nM, using DMSO as vehicle. Assay results for the experiments with hydrogen peroxide are presented as the LDH release (cell death) of untreated cells (control), hydrogen peroxide-treated cells (vehicle), and co-incubation of hydrogen peroxide with Compounds of the Invention treated cells normalized to the vehicle (FIG. 17A). This assay assesses the ability of the test compounds to protect against cell death that is mediated by mitochondrial dysfunction. In the assay, the calcium ionophore 4-Br-A23187 is used to challenge the cells, causing calcium levels to rise in mitochondria, which leads to depolarization and cell death. Test compounds are assessed for their ability to prevent cell death in response to challenge with 4-Br-A23187.
On the technique in general: Tetrazolium assays rely on reduction of a dye to a coloured formazan, in cell work by metabolically active cells.

For assay [2], the system named is SH-SY5Y cells over-expressing α-syn. The assay is described as follows: Cell viability (MTS reduction) in SH-SY5Y cells over-expressing α-synuclein. As to conditions: Homo sapiens, 336 h, α-syn over-expression (−dox), compounds at 0.1 nM, +dox control = 100, 14 days, read-out: Relative cell viability protection. As for the experimental part: Cell Culture. SH-SY5Y cells stably transfected with a doxycyline-inducible wild-type α-synuclein (α-syn) gene along with control SH-SY5Y cells over-expressing the β-galactosidase (β-gal) gene (a gift from L. Stefanis, Division of Basic Neurosciences, Biomedical Research Foundation of the Academy of Athens, Athens, Greece) are cultured as described by Vekrellis et al. (Vekrellis K, Xilouri M, Emmanouilidou E, Stefanis L. (2009). Inducible over-expression of α-syn in human neuronal cells leads to caspase-dependent non-apoptotic death. J Neurochem 109, 1348-1362). In accordance with this method, cells are cultured and maintained in RPMI 1640, 10% fetal bovine serum supplemented with 250 μg/mL G418 and 50 μg/mL Hygromycin B. Expression of α-syn is switched off in stock cultures with doxycycline (2 μg/mL). For experimental procedures, cells are plated at (4−8×10^4 cells/cm^2) and differentiated in absence of doxycycline and in the presence of 20 μM all-trans retinoic acid (RA) (Sigma, St Louis, Mo., USA).
Viability Assay: Cells are cultured in 96-well plates. After 24 h, cells are treated with RA and Compounds of Invention at 0.1 and 10 nM in the absence of doxycyline. Culture medium with RA and drugs is fully replaced after 7 days. Cell viability is measured by the release of lactate dehydrogenase (LDH) from necrotic cells into the culture medium and by measuring the capacity of cells to metabolize MTS tetrazolium (MTS) after 14 days in culture. LDH leakage is assessed according to the Cytotoxicity Detection KitPlus (Roche, Mannheim, Germany) and MTS reduction is assessed by the CellTiter 96® AQueous One Solution Cell Proliferation assay (Promega Corporation, Madison, Wis., USA).
Assay results for the experiments with α-syn over-expression are presented as the MTS reduction capacity (cell viability) of control cells (+dox), cells over-expressing α-syn (−dox), and cells over-expressing α-syn incubated with Compounds of the Invention at 0.1 nM (FIG. 18A) or 10 nM (FIG. 18B).

In assay [3] the test system is SH-SY5Y cells. In words: Cell death (LDH release) in hydrogen peroxide-treated SH-SY5Y cells. As to conditions: LDH release normalized to vehicle (=100); hydrogen peroxide 300 μM, 24 h; compounds at 10 nM. As for the experimental part:
as §1, with “SH-SY5Y cells cultured in DMEM/F12 media supplemented with 10% FBS were seeded in 96-well microplates at 150,000 cells/cm^2. After” for “After”
Background: Release of lactate dehydrogenase indicates damage to the cell membrane.

Turning to `Cc1ccc2c(c1)c1c(n2CC(O)c2ccncc2)CCN(C)C1` (single isomer, unassigned) [3b], in assay [1], the “Relative cell viability protection” value stood at 0.3673. Besides, the viability at 0.0001 µM in assay [2] was 70.8%. Also, the “LDH release (cell death), relative to vehicle” value in assay [3] was determined as 86.70.

As to `Cc1ccc2c(c1)c1c(n2CC(O)c2ccncc2)CCNC1` (single isomer, unassigned) [39a, 2-(8-methyl-1,2,3,4-tetrahydro-pyrido[4,3-b]indol-5-yl)-1-pyridin-4-yl-ethanol], the viability at 0.0001 µM in assay [2] came out at 72.5%. In addition, the “LDH release (cell death), relative to vehicle” value in assay [3] is 82.94.

For `CN1CCc2c(c3cc(Cl)ccc3n2CC(O)c2ccncc2)C1` (single isomer, unassigned) [4a], the viability at 0.0001 µM in assay [2] came out at 73.4%. The “LDH release (cell death), relative to vehicle” value in assay [3] was found to be 81.64.

On to `Cc1ccc2c(c1)c1c(n2CC(C)(O)c2cccnc2)CCN(C)C1` (single isomer, unassigned) [5b, 1-(1,2,3,4-tetrahydro-2,8-dimethylpyrido[4,3-b]indol-5-yl)-2-(pyridin-3-yl)propan-2-ol], for which the “Relative cell viability protection” value in assay [1] is given as 0.3748. The viability at 0.0001 µM in assay [2] was found to be 76.5%. The “LDH release (cell death), relative to vehicle” value in assay [3] was 73.73.

The record behind these values is patent publication US8791132B2, “Compounds and methods for treatment of hypertension” (Medivation Technologies, Inc., priority 2011, dated 2014).
